Measurements taken from patent US9345904B2, “Photodynamic therapy using photosensitizing agent or 5-aminolevulinic acid” (SBI Pharmaceuticals Co., Ltd., priority 2011, dated 2016).

Legend:
MKN45 cells = assay: Cell-killing effect of ALA-PDT by wavelength, MTT assay survival rate; type: cell-based
Method: MKN45 cells (purchased from Riken Cell Bank) cultured in a 35-mm dish were cultured for 4 hours in the presence of 0.168 mg/mL ALA. Then, 5 mL of a hemoglobin solution was dispensed into a 60-mm dish, placed on the 35-mm dish in which the culture was performed in the presence of ALA, and irradiated with light. Light shielding by hemoglobin was provided to imitate the inside of a living body because hemoglobin is considered to be a leading cause of the inhibition of light invasion in photodynamic therapy. The culture was irradiated to 4.5 J/cm^2 (5 mW/cm^2, 15 min.) with light having a peak at 402 nm, 502 nm, 517 nm, 529 nm, or 636 nm. […]
The survival rate of cells after light irradiation was measured using an MTT assay method. […] Thereafter, 200 μL thereof was dispensed into a 96-well plate and measured for absorbance at 570 nm using a plate reader (from Bio-Rad). The survival rate was measured from the absorbance of each sample and expressed relative to the absorbance after a medium without cultured cells were subjected to these procedures, set to 0%, and the absorbance after such cells cultured as control were subjected to these procedures, set to 100%. Optical power density with light shielding by hemoglobin was measured using Power Meter (from Scientex, Inc.); the results are shown in FIG. 3.

HeLa cells = assay: Cancer therapeutic effect of ALA-PDT by wavelength, hematoxylin-eosin staining of subcutaneous HeLa tumors; type: in vivo, SCID mice; conditions: for tumor tissue histology (effect of ALA-PDT): 750 mg/kg b.w. ALA tail vein, 100 J/cm^2, after 4 hours, tissue taken following day
Method: 5×10^5 HeLa cells were subcutaneously injected into SCID mice of the mouse numbers 1 to 3. […] After maintaining the mice until the size of tumors reaches that described in Table 1, 750 mg/kg b.w. of ALA was injected into the tail vein of the mice of numbers 1 and 2. After 4 hours, the mouse of number 1 was irradiated with LED light having a peak at a wavelength of 517 nm and the mouse of number 2 was irradiated with LED light having a peak at a wavelength of 629 nm. The SCID mice irradiated with light listed above were each anesthetized on the following day; a portion containing HeLa cells was cut out, fixed in formaldehyde, subjected to dehydration treatment with ethanol and xylene, and then embedded in paraffin; and a small piece thinly sliced into a thickness of 5 μm was stained with hematoxylin-eosin to observe the tissue under a light microscope.

## NCC(=O)CCC(=O)O [ALA, 5-aminolevulinic acid]
MKN45 cells; with light shielding by hemoglobin, lower optical power densities at 502-529 nm
  cell-killing effect of lights at 502 nm, 517 nm and 529 nm relative to light at 636 nm: comparable cell-killing effects compared to light at 636 nm
MKN45 cells; without light shielding by hemoglobin, 0.168 mg/mL ALA 4 hours, 4.5 J/cm^2, lights with peak at 402, 502, 517, 529 or 636 nm compared
  cell-killing effect of ALA-PDT: stronger in the order of lights having a peak at 402 nm, 502 nm, 517 nm, 529 nm, or 636 nm
HeLa cells; mouse number 1 (517 nm) versus mouse number 2 (629 nm), tumors about 4 mm in height
  effect of ALA-PDT at 517 nm compared with 629 nm (cell density, amount of blebs): the effect of ALA-PDT was higher
HeLa cells; mouse number 1, LED 517 nm
  tumor tissue histology (effect of ALA-PDT): the condensation of the cytoplasm, the disappearance of the nucleus, and clearance between cells due to the generation of blebs were observed
HeLa cells; mouse number 2, LED 629 nm
  tumor tissue histology (effect of ALA-PDT): the condensation of the cytoplasm, the disappearance of the nucleus, and clearance between cells due to the generation of blebs were observed
